Columns and labels:
Format in all cases: cell-based
[1] = test system: human fibroblasts; assay: Lack of non specific toxicity on human fibroblasts, with or without red light; conditions: DMEM 10% FCS, up to 40 μM
Description: The lack of non specific toxicity has been assessed by using human fibroblasts cultured for six days. Aliquots of the compound according to Ex. 4 at various concentrations have been added to cells in DMEM 10% FCS. After treatment the cell were irradiated for 10 min with red light (Intralux 4000 equipped with filter BP700/100Chroma Technology Corp.). In a parallel experiment cells were treated with the same amounts of compound of Ex. 4, however no light was provided.

[2] = biological target: T1, repeat D of type III FN like of human Tenascin (TN) (Homo sapiens, UniProt P24821); assay: Binding specificity of labelled antibody by immunohystochemistry on human fibroblasts (GM6114); conditions: shown by immunohystochemistry experiments
T1 construct: determined by immunohystochemistry on human fibroblasts (GM6114); endogenous in cells; host or cells: human fibroblasts (GM6114)
T1 sequence (P24821 23-2201): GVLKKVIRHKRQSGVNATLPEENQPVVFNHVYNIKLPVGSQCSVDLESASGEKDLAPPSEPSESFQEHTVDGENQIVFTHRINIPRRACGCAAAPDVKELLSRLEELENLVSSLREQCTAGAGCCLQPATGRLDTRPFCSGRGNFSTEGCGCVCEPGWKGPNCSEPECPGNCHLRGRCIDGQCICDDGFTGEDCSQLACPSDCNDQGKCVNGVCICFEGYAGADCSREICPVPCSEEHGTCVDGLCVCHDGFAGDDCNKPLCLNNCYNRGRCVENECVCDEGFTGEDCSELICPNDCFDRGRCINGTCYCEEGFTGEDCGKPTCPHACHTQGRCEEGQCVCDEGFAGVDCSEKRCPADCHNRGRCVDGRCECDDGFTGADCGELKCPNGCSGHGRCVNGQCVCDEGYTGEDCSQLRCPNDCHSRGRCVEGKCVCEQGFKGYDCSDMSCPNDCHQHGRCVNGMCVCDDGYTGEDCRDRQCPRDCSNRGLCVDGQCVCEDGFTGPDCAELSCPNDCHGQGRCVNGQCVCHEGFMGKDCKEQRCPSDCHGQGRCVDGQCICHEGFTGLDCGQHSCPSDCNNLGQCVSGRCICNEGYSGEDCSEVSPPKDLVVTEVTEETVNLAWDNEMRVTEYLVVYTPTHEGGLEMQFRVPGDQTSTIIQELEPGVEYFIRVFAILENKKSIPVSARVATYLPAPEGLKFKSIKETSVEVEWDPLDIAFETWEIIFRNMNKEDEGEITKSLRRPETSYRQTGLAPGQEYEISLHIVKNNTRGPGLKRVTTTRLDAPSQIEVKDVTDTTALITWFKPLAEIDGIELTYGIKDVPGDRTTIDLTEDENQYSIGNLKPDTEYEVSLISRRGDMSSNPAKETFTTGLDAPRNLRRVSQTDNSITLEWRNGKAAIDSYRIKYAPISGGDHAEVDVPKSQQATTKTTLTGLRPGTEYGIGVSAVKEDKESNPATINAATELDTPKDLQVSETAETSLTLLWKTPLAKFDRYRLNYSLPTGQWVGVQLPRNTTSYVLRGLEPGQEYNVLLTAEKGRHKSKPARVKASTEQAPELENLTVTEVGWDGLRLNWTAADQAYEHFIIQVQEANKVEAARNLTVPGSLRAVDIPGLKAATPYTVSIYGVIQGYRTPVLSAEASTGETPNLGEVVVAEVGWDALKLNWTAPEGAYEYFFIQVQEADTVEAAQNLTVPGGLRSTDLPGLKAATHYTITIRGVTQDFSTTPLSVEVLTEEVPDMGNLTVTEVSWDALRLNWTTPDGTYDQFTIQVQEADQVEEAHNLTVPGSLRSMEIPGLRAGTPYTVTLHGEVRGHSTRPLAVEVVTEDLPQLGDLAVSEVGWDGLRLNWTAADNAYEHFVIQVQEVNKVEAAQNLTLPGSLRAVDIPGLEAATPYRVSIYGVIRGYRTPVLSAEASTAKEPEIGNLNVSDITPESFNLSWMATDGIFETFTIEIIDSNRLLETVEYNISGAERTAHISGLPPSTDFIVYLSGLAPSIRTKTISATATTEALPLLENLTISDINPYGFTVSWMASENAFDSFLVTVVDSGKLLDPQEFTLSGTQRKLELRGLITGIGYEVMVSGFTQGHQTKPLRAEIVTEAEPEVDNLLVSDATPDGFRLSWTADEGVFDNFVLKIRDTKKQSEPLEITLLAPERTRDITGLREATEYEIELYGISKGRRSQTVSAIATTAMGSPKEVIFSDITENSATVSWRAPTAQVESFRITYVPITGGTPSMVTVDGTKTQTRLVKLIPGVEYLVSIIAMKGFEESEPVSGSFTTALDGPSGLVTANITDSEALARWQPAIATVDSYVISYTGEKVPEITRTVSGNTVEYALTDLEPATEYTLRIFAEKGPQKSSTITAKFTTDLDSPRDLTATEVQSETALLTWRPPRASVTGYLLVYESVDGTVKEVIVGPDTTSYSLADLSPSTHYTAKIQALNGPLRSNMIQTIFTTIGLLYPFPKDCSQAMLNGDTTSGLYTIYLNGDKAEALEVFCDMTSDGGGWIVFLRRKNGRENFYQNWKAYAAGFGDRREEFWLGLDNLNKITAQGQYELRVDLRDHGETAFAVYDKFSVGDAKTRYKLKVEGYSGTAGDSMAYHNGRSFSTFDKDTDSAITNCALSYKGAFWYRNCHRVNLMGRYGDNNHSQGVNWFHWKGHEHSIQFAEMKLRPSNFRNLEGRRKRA
Description: Monoclonal Antibody α-D specific for the repeat D of type III FN like of human Tenascin (TN) (Balza et al. FEBS, 332,39 1993) has been labelled by using the compound of Ex. 4.
The labelling procedure has been carried out with the monoclonal bound to the Sepharose 4b immobilised antigen, represented from the recombinant TN containing repeats B,C,D type III FN-like.

[3] = test system: C. albicans; assay: Photoinactivation of C. albicans (CFU vs. concentration, FIG. 1)
Description: FIG. 1 represents the variation of the colony forming units (CFU) of C. albicans vs. the concentration (μM) of the compounds according to Examples 7 and 8,indicated in the FIGURE as MRLP 090 and MRLP 091 respectively.
The following example refer to the activity against C. albicans.

Question: How did the “mortality or morphology in comparison to not treated-not irradiated cells” value ([1]; irradiated 10 min with red light) turn out when “2-[(4-hydroxycarbonyl)phenoxy]-1(4),8(11),15(18),22(25)-tri[2 -(morfolin-1-yl) ethoxy] zinc(II)phthalocyanine [Example 4]” was run?
Answer: The value was “No differences in mortality or morphology”.

Question: And the “mortality or morphology in comparison to not treated-not irradiated cells” value ([1]; no light provided)?
Answer: Its value is “No differences in mortality or morphology”.

Question: What about the “aggregation or protein denaturation of the antibody on labelling” value [2] of the same substance?
Answer: Its value is “does not cause aggregation to occur or protein denaturation”.

Question: Which “photoinactivation of C. albicans (variation of colony forming units vs. concentration, μM)” value [3] does the source give for “2-[(4-hydroxycarbonyl)phenoxy]-8(11),15(18),22(25)-tri[3-(trimethylammonium) phenoxy]zinc(II) phthalocyanine triiodide [Example 8]” here?
Answer: The value was “photoinactivation”.

Question: Which “photoinactivation of C. albicans (variation of colony forming units vs. concentration, μM)” value [3] does the source give for “2-[(4-hydroxycarbonyl)phenoxy]-9(10),16(17),23(24)-tri[3-(trimethylammonium) phenoxy]zinc(II)phthalocyanine triiodide [Example 7]” here?
Answer: Its value is “photoinactivation”.

— patent publication US7153841B2, “Metal substituted non-centrosimmetrical phthalocyanine analogues, their preparation and use in photodynamic therapy and in vivo diagnostic” (L. Molteni & C. Dei Fratelli Alitti Societa Di Esercizio …, priority 2001, dated 2006)
